{
  "source": "patent US9133225B2",
  "about": "“Dual targeting anticancer agents” (priority 2013, dated 2015)",
  "key": {"[1]": {"system": "MRC-5 non-tumorigenic lung fibroblast cells", "assay": "MTT cytotoxicity assay, MRC-5", "settings": "read-out: cytotoxicity IC50; MRC-5, lung normal; MTT, 48 h treatment; spread in brackets", "text": "(a) Dulbecco's Modified Eagle Medium (DMEM), Dulbecco's phosphate buffered saline (DPBS), fetal bovine serum (FBS) and 0.25% trypsin/EDTA solutions were purchased from Cellgro (Manassas, Va.). Penicillin-streptomycin solutions were purchased from Mediatech (Manassas, Va.). (b) HeLa (CCL-2TM) cells, A549, A2870, A2870/CP70, MCF-7, PC-3, and MRC-5 cells were purchased from American Type Culture Collection (ATCC, Manassas, Va., USA). (c) HCT116 cells were kindly donated by Laura Trudel (MIT). HeLa, A549, MCF-7, and MRC-5 cells were cultured using DMEM supplemented with 10% FBS and 1% penicillin-streptomycin. A2870, A2870/CP70, and PC-3 cells were cultured in RPMI supplemented with 10% FBS and 1% penicillin-streptomycin. HCT116 cells were cultured in McCoy's supplemented with 10% FBS and 1% penicillin-streptomycin. All cell-culture experiments were performed in the aforementioned media in an incubator operating at 37° C. and in the presence of a humidified atmosphere containing 5.0% CO2. Cells were harvested using a 0.25% trypsin/EDTA solution.\nThe cytotoxicity of the compounds was assessed by means of the MTT assay (MTT=3-(4,5-dimethyl-2-thiazolyl)-2,5-diphenyl-2H-tetrazolium bromide). Typically, on day one, ˜1×10^3 cells were seeded into 96-well plates in 100 μL media per well. The last row of the plate was left empty as a control for background absorption. The cells were allowed to grow for 24 h in the incubator at 37° C. On day two, a series of drug dilutions in growth media were prepared immediately prior to cell treatment. The media in the wells of the 96 plates were replaced with 100 μL of growth media containing appropriate drug concentrations. The cells were treated for 48 h at 37° C. in the incubator. On day four, a stock solution of MTT (5 mg/mL in PBS buffer) was diluted with media so that, when 100 μL of the media was added to each well, 10 μL of MTT stock was applied. The cells were incubated for 2 h and then all the media was replaced with 100 μL of DMSO to dissolve the purple MTT-formazan crystals. The optical density for each well at 550 nm was measured with a microplate reader."}, "A549 cells [2]": {"system": "A549 cells", "assay": "Immunoblotting of DNA damage and apoptosis biomarkers", "assay_type": "cell-based", "settings": "0.75-6 μM, 48 h", "protocol": "To gain further insight into the cellular response evoked by Pt(IV)(α-TOS)(OEt) treatment, biomarkers related to DNA damage and apoptosis were monitored. […] Whole cell lysates were resolved by SDS-PAGE and analyzed by immunoblotting against γH2AX, p53, and cleaved caspase-7, cleaved caspase-9, cleaved PARP-1, and β-actin as control.\nA549 cells (5×10^5 cells) were incubated with test compound for 48 h at 37° C. Cells were washed with PBS, scraped into SDS-PAGE loading buffer (64 mM Tris-HCl (pH6.8)/9.6% glycerol/2% SDS/5% β-mercaptoethanol/0.01% Bromophenol Blue) and incubated at 95° C. for 10 min. Whole cell lysates were resolved by 4-20% sodium dodecylsulphate polyacylamide gel electrophoresis (SDS-PAGE; 200 V for 1 h) followed by electro transfer to polyvinylidene difluoride membrane, PVDF (350 mA for 1 h). Membranes were blocked in 5% (w/v) non-fat milk in PBST (PBS/0.1% Tween 20) and incubated with the appropriate primary antibodies (Cell Signalling Technology and Santa Cruz). After incubation with horseradish peroxidase-conjugated secondary antibodies (Cell Signalling Technology), immune complexes were detected with the ECL detection reagent (BioRad) and analysed using an Alpha Innotech ChemiImager™ 5500 fitted with a chemiluminescence filter."}, "A549 cells [3]": {"system": "A549 cells", "assay": "Cell cycle flow cytometry (propidium iodide)", "assay_type": "cell-based", "settings": "3 μM", "protocol": "Flow-cytometric measurements were also performed to determine the effect of Pt(IV)(α-TOS)(OEt) exposure on cell cycle progression. A549 cells were treated with Pt(IV)(α-TOS)(OEt), 3 μM, for 24, and 48 hours. The cell cycle distribution was compared with untreated cells. […] After 24 hours the untreated population had 78.1% in G1 phase, 17.7% in S phase, 4.5% in G2/M phase. After 48 hours the untreated population had 81.0% in G1 phase, 16.0% in S phase, 3.0% in G2/M phase. After 24 hours the treated population had 64.7% in G1 phase, 31.7% in S phase, 3.6% in G2/M phase. After 48 hours, the treated population had 70.4% in G1 phase, 26.2% in S phase, 3.4% in G2/M phase. […] It was therefore clear that Pt(IV)(α-TOS)(OEt) disturbed DNA synthesis and arrest at S-phase.\nIn order to monitor the cell cycle, flow cytometry studies were carried out. A549 cells were incubated with and without the test compounds for 24 and 48 h at 37° C. Cells were harvested from adherent cultures by trypsinization and combined with all detached cells from the incubation medium to assess total cell viability. Following centrifugation at 1000 rpm for 5 min, cells were washed with PBS and then fixed with 70% ethanol in PBS. Fixed cells were collected by centrifugation at 2500 rpm for 3 min, washed with PBS and centrifuged as before. Cellular pellets were re-suspended in 50 μg/mL propidium iodide (Sigma) in PBS for nucleic acids staining and treated with 100 μg/mL RNaseA (Sigma). DNA content was measured on a FACSCalibur-HTS flow cytometer (BD Biosciences) using laser excitation at 488 nm and 20,000 events per sample were acquired. Cell cycle profiles were analysed using the ModFit software. For the apoptosis experiments, the Annexin V-FITC Early Apoptosis Detection Kit (Cell Signaling Technology) was used. The manufacture's protocol was followed to carry out this experiment. Briefly, untreated and treated cells (1×10^5) were suspended in 1× annexin binding buffer (96 μL) (10 mM HEPES, 140 mM NaCl, 2.5 mM CaCl2, pH 7.4), then 1 μL FITC annexin V and 12.5 μL propidium iodine (10 μg/mL) were added to each sample and incubated on ice for 15 min. Subsequently, more binding buffer (150 μL) was added while gently mixing. The samples were kept on ice prior to being read on the FACSCalibur-HTS flow cytometer (BD Biosciences) (20,000 events per sample were acquired). Cell populations were analysed using the FlowJo software (Tree Star). For the JC-1 assay, the JC-1 Mitochondrial Membrane Potential Assay Kit (Cayman) was used. The manufacture's protocol was followed to carry out this experiment. Briefly, to untreated and treated cells grown in 6-well plates (at a density of 5×10^5 cells/mL) was added the JC-1 staining solution (100 μL/mL of cell media). The cells were incubated for 30 min, harvested, and analysed by using the FACSCalibur-HTS flow cytometer (BD Biosciences) (20,000 events per sample were acquired). The FL1 channel was used to detect unhealthy or apoptotic cells with collapsed mitochondria. Cell populations were analysed using the FlowJo software (Tree Star)."}},
  "data": [
    {"smiles": "CC[O][Pt]([NH2])([NH2])([Cl])([Cl])[O]C(=O)CCC(=O)Oc1c(C)c(C)c2c(c1C)CCC(C)(CCCC(C)CCCC(C)CCCC(C)C)O2", "note": "(stereo not drawn) [Pt(IV)(α-TOS)(OEt)]", "values": [
      {"measurement": "IC50", "setting": "[1]", "result": 5.3, "unit": "µM"},
      {"measurement": "cleaved PARP-1 expression", "setting": "A549 cells [2]", "result": "increased"},
      {"measurement": "cleaved caspase-9 expression", "setting": "A549 cells [2]", "result": "increased"},
      {"measurement": "p53 expression", "setting": "A549 cells [2]", "result": "increased in a dose-dependent manner"},
      {"measurement": "γH2AX expression", "setting": "A549 cells [2]", "result": "an increase in γH2AX expression"},
      {"measurement": "cell population in G1 phase", "setting": "A549 cells [3]; 24 hours", "result": 64.7, "unit": "%"},
      {"measurement": "cell population in G2/M phase", "setting": "A549 cells [3]; 24 hours", "result": 3.6, "unit": "%"},
      {"measurement": "cell population in S phase", "setting": "A549 cells [3]; 24 hours", "result": 31.7, "unit": "%"},
      {"measurement": "cell population in G1 phase", "setting": "A549 cells [3]; 48 hours", "result": 70.4, "unit": "%"},
      {"measurement": "cell population in G2/M phase", "setting": "A549 cells [3]; 48 hours", "result": 3.4, "unit": "%"},
      {"measurement": "cell population in S phase", "setting": "A549 cells [3]; 48 hours", "result": 26.2, "unit": "%"}
    ]}
  ]
}
